Here are results for one compound from ChEMBL document CHEMBL4402613, “Targeting ALK2: An Open Science Approach to Developing Therapeutics for the Treatment of Diffuse Intrinsic Pontine Glioma” (J Med Chem, 2020).

For data set [1], the target named is T1, TGF-beta receptor type-1 (Homo sapiens, UniProt P36897).
T1 sequence (P36897 whole entry): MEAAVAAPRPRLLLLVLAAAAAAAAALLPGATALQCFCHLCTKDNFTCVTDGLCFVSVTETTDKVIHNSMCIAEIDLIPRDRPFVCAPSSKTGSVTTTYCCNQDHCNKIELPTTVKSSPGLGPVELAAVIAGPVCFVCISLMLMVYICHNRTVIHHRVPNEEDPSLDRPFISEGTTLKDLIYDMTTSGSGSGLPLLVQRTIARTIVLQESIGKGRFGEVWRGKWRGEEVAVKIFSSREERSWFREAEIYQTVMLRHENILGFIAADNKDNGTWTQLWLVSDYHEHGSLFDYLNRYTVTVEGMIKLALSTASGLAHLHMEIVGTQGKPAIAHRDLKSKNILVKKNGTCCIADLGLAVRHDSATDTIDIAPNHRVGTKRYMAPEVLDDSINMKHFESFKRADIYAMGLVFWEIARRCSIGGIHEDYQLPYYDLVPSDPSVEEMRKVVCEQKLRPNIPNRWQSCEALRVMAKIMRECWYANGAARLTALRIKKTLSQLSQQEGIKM
Format: single protein.
Description: Inhibition of human ALK5 using casein as substrate in presence of 10 uM [gamma33P] ATP by radioactive assay

The target in data set [2] is T1, TGF-beta receptor type-1. The data set is classed as cell-based, HEK293.
Description: Inhibition of ALK5 (unknown origin) expressed in HEK293 cells transfected with CAGA-luciferase and Renilla luciferase reporter measured after 24 hrs by dual luciferase reporter assay
Data set [3] deals with Activin receptor type-1-like (Homo sapiens) (UniProt P37023). Description: Inhibition of ALK1 (unknown origin) at 1 uM.
Data set [4] concerns the target Bone morphogenetic protein receptor type-1A (Homo sapiens) (UniProt P36894). Description: Inhibition of ALK3 (unknown origin) at 1 uM.
Data set [5] deals with Bone morphogenetic protein receptor type-1B (Homo sapiens) (UniProt O00238). The data set is described as follows: Inhibition of ALK6 (unknown origin) at 1 uM.
The target of data set [6] is Mitogen-activated protein kinase kinase kinase kinase 4 (Homo sapiens) (UniProt O95819). Description: Inhibition of MAP4K4 (unknown origin) at 1 uM.
For data set [7], the target named is Misshapen-like kinase 1 (Homo sapiens) (UniProt Q8N4C8). The data set is described as follows: Inhibition of MINK (unknown origin) at 1 uM.
The target in data set [8] is T2, Non-receptor tyrosine-protein kinase TNK1 (Homo sapiens) (UniProt Q13470).
T2 sequence (whole entry): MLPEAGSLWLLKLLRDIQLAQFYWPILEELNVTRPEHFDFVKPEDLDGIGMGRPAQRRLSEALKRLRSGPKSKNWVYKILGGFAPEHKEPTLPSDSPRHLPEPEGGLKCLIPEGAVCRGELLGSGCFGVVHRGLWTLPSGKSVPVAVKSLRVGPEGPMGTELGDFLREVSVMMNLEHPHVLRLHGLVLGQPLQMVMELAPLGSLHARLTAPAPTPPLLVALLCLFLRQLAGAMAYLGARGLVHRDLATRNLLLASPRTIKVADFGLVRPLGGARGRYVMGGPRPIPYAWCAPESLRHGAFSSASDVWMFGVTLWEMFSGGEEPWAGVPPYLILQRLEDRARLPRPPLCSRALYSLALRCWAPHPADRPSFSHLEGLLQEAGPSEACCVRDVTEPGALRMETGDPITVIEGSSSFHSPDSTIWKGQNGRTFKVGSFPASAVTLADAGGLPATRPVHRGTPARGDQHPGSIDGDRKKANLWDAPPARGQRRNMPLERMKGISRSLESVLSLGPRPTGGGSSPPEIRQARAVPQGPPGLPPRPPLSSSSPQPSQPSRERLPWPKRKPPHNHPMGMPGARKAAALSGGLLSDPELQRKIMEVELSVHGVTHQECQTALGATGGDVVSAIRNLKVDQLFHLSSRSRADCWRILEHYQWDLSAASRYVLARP
Description: Inhibition of TNK1 (unknown origin) at 1 uM.

Data set [9] concerns the target Activin receptor type-1 (Homo sapiens, UniProt Q04771, G328V). The data set is described as follows: Inhibition of ALK2 G328V mutant (unknown origin).
Data set [10] has as its target Activin receptor type-1 (Homo sapiens, UniProt Q04771, R206H). Description: Inhibition of human ALK2 R206H mutant using casein as substrate in presence of 10 uM [gamma33P] ATP by radioactive assay.
In data set [11] the target is Voltage-gated inwardly rectifying potassium channel KCNH2 (Homo sapiens, UniProt Q12809).
Description: Inhibition of human ERG expressed in HEK293 cells measured after 5 mins by whole cell patch clamp method
The target of data set [12] is T3, Cytochrome P450 2B6 (Homo sapiens, UniProt P20813).
T3 sequence (P20813 whole entry): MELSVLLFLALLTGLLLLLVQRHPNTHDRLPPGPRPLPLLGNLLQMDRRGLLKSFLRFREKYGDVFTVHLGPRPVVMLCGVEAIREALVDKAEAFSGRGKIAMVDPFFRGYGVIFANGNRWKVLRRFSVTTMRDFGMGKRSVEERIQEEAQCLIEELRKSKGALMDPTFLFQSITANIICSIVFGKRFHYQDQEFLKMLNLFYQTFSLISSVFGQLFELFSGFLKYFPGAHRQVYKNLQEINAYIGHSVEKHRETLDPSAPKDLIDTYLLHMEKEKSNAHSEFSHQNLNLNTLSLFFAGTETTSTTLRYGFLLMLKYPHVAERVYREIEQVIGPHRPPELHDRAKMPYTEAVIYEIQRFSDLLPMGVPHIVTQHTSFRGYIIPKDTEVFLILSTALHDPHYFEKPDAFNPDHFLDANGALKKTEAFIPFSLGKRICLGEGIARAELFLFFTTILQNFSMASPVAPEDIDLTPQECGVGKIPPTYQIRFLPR
Description: Inhibition of CYP2B6 in human liver microsomes using bupropion as substrate incubated for 40 mins in presence of NADPH by LC-MS/MS analysis

For data set [13] the following is noted: mouse, in vivo, po, 10 mg/kg, 24 h.
For data set [14] the following is noted: mouse, in vivo, po, 10 mg/kg, 24 h. This is another data set of the same source.
The conditions of data set [15]: mouse, in vivo, po, 10 mg/kg, 24 h. The source holds these as a separate data set.
Description: Half life in CB17 SCID mouse at 10 mg/kg, po measured up to 24 hrs by LC-MS/MS analysis
For data set [16] the following is noted: mouse, microsomes, 1 h, 1 µM.
Description: Microsomal stability in CD-1 mouse liver microsomes assessed as parent compound remaining at 1 uM and 37 degree C measured after 60 mins in presence of NADP+ by LC-QTOF/MS analysis
For data set [17] the following is noted: human, microsomes, 1 h, 1 µM.
Description: Microsomal stability in human liver microsomes assessed as parent compound remaining at 1 uM and 37 degree C measured after 60 mins in presence of NADP+ by LC-QTOF/MS analysis
Data set [18] in a line: in vitro. As to conditions: human, Caco-2.
Description: Apparent permeability across apical to basolateral membrane in human Caco2 cells at 5 uM incubated for 120 mins in orbital shaker by LC-QTOF/MS analysis
The nature of data set [19]: in vitro. As to conditions: human, Caco-2. The source holds these as a separate data set.
Description: Apparent permeability across basolateral to apical membrane in human Caco2 cells at 5 uM incubated for 120 mins in orbital shaker by LC-QTOF/MS analysis

The source made the active and inactive calls. The rule behind the calls is not given here.

Mitogen-activated protein kinase kinase kinase kinase 4 (Homo sapiens), sequence (O95819 2-1239 limits assumed): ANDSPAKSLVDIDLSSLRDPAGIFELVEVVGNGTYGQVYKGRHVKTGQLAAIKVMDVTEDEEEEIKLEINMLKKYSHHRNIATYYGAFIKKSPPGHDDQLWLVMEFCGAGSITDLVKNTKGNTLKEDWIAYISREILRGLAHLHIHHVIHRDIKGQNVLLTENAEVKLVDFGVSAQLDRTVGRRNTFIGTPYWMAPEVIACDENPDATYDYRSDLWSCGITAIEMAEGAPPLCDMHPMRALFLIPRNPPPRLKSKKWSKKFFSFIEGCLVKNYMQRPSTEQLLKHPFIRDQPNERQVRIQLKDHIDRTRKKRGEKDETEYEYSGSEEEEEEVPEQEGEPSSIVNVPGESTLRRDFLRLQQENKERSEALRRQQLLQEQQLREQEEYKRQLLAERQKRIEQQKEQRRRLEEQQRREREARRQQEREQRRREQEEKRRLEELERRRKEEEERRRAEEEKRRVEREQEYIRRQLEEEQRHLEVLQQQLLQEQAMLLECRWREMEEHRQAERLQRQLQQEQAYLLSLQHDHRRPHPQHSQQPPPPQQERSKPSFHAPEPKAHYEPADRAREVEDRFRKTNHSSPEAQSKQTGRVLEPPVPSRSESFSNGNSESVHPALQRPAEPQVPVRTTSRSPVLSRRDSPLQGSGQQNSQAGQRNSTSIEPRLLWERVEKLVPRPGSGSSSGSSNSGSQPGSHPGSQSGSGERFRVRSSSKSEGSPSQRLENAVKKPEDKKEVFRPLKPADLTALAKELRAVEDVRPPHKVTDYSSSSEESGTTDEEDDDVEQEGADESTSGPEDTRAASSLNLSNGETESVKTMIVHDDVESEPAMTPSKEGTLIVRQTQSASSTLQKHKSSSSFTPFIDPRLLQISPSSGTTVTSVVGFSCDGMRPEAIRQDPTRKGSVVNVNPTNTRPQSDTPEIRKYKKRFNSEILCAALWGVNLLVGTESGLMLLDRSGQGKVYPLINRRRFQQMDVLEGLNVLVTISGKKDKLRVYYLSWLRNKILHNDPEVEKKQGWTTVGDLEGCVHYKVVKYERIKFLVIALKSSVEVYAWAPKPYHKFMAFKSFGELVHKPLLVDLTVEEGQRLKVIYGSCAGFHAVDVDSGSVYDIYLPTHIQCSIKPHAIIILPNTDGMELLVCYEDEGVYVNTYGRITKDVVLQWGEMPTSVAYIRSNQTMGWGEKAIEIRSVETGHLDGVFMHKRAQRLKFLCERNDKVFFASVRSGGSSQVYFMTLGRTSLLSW
Misshapen-like kinase 1 (Homo sapiens), sequence (Q8N4C8 whole entry, looked up): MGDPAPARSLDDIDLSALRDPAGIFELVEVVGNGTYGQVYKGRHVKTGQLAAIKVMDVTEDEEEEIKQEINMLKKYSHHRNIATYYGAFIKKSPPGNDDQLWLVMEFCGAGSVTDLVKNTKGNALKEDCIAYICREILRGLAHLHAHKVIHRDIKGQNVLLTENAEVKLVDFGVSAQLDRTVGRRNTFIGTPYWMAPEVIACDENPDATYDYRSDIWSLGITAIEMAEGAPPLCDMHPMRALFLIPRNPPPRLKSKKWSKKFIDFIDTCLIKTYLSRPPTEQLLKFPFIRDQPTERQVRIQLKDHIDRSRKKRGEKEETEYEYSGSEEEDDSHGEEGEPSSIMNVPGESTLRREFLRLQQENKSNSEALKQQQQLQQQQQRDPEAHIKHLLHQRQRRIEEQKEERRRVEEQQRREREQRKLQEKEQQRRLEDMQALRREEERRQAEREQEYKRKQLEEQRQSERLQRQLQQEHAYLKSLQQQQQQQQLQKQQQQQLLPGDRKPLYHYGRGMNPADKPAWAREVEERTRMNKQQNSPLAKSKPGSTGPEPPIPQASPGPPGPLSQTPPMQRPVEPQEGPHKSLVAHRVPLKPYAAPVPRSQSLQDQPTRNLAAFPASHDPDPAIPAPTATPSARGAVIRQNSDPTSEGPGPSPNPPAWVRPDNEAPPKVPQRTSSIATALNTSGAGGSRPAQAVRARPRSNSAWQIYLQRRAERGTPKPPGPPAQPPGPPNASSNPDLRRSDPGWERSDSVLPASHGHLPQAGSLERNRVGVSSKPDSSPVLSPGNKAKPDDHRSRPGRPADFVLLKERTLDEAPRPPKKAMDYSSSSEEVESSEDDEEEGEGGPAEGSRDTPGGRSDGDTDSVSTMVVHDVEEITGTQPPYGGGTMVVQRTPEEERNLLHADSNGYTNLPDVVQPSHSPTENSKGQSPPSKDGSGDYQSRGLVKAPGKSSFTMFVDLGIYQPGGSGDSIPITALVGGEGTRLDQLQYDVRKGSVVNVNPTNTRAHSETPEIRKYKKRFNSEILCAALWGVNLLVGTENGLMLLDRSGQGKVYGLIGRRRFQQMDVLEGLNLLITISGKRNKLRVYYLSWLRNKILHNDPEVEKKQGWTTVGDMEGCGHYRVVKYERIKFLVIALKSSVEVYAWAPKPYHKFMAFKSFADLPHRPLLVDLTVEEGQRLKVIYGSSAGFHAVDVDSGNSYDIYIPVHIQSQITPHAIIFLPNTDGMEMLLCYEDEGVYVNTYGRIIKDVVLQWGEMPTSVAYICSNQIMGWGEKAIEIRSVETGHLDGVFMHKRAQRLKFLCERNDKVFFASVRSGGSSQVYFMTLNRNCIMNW
Activin receptor type-1 (Homo sapiens, UniProt Q04771, R206H), sequence (Q04771 21-509 R206H limits assumed): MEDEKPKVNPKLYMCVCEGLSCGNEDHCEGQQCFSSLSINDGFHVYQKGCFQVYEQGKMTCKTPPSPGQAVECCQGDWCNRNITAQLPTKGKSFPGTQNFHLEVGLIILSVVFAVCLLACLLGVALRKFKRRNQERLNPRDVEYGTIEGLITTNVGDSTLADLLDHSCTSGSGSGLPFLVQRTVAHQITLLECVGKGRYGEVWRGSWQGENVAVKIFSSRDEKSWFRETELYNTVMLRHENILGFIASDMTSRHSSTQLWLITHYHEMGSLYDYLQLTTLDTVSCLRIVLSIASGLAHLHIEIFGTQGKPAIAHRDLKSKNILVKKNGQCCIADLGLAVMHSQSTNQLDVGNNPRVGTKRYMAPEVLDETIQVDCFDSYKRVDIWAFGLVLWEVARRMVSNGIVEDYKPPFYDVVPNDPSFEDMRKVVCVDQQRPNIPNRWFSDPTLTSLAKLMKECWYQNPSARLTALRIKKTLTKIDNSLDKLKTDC
Voltage-gated inwardly rectifying potassium channel KCNH2, sequence (Q12809 whole entry): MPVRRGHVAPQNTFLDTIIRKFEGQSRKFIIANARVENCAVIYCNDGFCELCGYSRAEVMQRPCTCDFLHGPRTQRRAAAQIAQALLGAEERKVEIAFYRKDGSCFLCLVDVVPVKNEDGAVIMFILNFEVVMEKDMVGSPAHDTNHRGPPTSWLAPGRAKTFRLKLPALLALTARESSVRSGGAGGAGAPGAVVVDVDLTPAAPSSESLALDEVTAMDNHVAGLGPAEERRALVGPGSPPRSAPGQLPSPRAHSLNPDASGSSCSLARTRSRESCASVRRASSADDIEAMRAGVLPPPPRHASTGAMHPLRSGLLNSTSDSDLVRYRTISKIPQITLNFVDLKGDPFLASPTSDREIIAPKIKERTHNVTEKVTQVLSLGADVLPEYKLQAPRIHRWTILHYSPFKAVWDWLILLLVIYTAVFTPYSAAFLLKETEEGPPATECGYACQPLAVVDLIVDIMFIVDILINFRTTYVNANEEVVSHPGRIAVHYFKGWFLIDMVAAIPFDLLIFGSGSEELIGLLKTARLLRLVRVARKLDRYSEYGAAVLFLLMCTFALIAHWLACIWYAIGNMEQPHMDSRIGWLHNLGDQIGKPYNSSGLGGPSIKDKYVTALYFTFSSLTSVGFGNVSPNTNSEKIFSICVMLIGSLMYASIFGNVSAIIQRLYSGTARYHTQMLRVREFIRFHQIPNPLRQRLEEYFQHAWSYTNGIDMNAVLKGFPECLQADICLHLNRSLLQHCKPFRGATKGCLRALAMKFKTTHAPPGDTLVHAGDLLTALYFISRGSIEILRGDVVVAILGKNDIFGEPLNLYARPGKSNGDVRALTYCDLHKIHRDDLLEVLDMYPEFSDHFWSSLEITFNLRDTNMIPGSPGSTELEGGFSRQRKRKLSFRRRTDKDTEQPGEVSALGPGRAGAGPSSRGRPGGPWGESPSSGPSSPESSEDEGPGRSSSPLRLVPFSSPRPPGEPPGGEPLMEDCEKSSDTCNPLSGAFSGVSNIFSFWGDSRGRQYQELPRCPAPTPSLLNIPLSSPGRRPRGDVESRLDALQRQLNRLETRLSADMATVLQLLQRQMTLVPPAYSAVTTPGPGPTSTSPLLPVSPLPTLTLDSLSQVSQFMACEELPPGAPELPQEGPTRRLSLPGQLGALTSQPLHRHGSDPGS
Bone morphogenetic protein receptor type-1A (Homo sapiens), sequence (P36894 whole entry): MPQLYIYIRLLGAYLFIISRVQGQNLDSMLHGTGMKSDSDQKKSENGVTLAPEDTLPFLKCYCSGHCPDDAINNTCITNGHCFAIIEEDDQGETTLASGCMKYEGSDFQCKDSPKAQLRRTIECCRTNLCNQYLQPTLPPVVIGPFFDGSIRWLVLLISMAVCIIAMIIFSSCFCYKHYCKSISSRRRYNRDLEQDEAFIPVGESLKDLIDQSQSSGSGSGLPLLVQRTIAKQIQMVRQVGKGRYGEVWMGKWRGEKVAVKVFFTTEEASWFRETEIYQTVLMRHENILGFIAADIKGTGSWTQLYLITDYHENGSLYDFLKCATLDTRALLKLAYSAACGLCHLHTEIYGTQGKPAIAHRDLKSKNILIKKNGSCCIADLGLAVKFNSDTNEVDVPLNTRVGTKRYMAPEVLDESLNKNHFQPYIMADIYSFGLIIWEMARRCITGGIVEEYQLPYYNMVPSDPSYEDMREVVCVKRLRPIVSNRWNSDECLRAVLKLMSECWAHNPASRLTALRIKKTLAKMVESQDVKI
Activin receptor type-1 (Homo sapiens, UniProt Q04771, G328V), sequence (Q04771 21-509 G328V limits assumed): as the sequence (Q04771 21-509 R206H limits assumed) above, with H186R, G308V counted along it

For the compound `COc1cc(-c2cncc(-c3ccc(N4CCN(C)CC4)cc3)c2C)cc(F)c1C(N)=O`, the IC50 in data set [1] is 1050 nM; in data set [2] it was 4300 nM; in data set [9], 16 nM; in [10] it was 19 nM; in data set [11] it was over 30000 nM; in data set [12], over 50000 nM. In addition, the inhibition result in data set [3], in data set [4], in data set [5], in data set [6], in data set [7] and in data set [8] was “Active” each time. The same compound had a Cmax in data set [13] of 2140 ng/mL. This compound also came in with an AUC in [14] of 4056 ng·h/mL. Also, the t1/2 in [15] was determined as 2.56 h. The Stability entry in [16] and in data set [17] was “Stable” throughout. Moreover, the Papp A→B at 2 h, 5 µM in data set [18] was found to be 5.5 ×10⁻⁶ cm/s. In data set [19], this compound registered a Papp B→A at 2 h, 5 µM of 16.2 ×10⁻⁶ cm/s.
